Active and inactive are the calls of the source. The rule behind the calls is not given here.

The subject of assay [1] is Human immunodeficiency virus 1. Description: Antiviral activity against HIV-1 NL4-3 infected in human M8166 cells assessed as inhibition of viral replication at 20 uM after 5 days by p24 ELISA. Type of assay: functional, organism-based. (In general: An ELISA detects its analyte on a solid surface through an enzyme-linked reagent.)
Assay [2] has as its system HEK-293T. Description: Binding affinity to HIV-1 NL4-3 capsid protein expressed in HEK293T cells by surface plasmon resonance analysis. The following applies: Human immunodeficiency virus 1. A general note: Surface plasmon resonance follows binding to a sensor surface in real time, without labels.
In assay [3] the test system is HEK-293T. Description: Binding affinity to HIV-1 NL4-3 Pr55Gag expressed in HEK293T cells by surface plasmon resonance analysis. The following applies: Human immunodeficiency virus 1.

As for `COC(=O)CCCC[C@@H]1SC[C@@H]2NC(=O)N[C@@H]21`, the inhibition result in assay [1] is “inactive”.

For `O=C(CCCC[C@@H]1SC[C@@H]2NC(=O)N[C@@H]21)NCCCCCCc1ccnc(SCc2nc3ccccc3s2)n1`, the outcome with HEK-293T [2] and in the assay with HEK-293T [3] was inactive. For the same molecule, the inhibition result in assay [1] was “Active”.

With `NCCCCCCc1ccnc(SCc2nc3ccccc3s2)n1`, the inhibition result in assay [1] is “Active”.

In the case of `Cc1ccnc(SCc2nc3ccccc3s2)n1`, the inhibition result in assay [1] was “Active”.

The values above are taken from ChEMBL document CHEMBL3745633, “Synthesis of the biotinylated anti-HIV compound BMMP and the target identification study” (Bioorg Med Chem Lett, 2016).
